Results as given in ChEMBL document CHEMBL5247592, “Discovery of novel VEGFR-2-PROTAC degraders based on the localization of lysine residues via recruiting VHL for the treatment of gastric cancer” (Eur J Med Chem, 2022).
Active and inactive are the calls of the source. No cut-off for these calls is given here.

Legend:
[1] = Cytotoxicity against HEK293T cells assessed as inhibition of cell growth incubated for 72 hrs by MTT assay; assay type: toxicity, cell-based, HEK-293T; details: human
[2] = Cytotoxicity against human GES1 cells assessed as inhibition of cell growth incubated for 72 hrs by MTT assay; assay type: toxicity, cell-based
[3] = molecular target: T1, von Hippel-Lindau disease tumor suppressor/Vascular endothelial growth factor receptor 2 (Homo sapiens, UniProt P35968+P40337); assay: PROTAC activity at VHL/VEGFR2 in human HGC-27 cells assessed as reduction in VEGFR2 protein level by measuring maximal efficacy incubated for 24 hrs by Western blot analysis relative to control; assay type: cell-based
Target sequence in this assay (P35968 20-1356 limits assumed): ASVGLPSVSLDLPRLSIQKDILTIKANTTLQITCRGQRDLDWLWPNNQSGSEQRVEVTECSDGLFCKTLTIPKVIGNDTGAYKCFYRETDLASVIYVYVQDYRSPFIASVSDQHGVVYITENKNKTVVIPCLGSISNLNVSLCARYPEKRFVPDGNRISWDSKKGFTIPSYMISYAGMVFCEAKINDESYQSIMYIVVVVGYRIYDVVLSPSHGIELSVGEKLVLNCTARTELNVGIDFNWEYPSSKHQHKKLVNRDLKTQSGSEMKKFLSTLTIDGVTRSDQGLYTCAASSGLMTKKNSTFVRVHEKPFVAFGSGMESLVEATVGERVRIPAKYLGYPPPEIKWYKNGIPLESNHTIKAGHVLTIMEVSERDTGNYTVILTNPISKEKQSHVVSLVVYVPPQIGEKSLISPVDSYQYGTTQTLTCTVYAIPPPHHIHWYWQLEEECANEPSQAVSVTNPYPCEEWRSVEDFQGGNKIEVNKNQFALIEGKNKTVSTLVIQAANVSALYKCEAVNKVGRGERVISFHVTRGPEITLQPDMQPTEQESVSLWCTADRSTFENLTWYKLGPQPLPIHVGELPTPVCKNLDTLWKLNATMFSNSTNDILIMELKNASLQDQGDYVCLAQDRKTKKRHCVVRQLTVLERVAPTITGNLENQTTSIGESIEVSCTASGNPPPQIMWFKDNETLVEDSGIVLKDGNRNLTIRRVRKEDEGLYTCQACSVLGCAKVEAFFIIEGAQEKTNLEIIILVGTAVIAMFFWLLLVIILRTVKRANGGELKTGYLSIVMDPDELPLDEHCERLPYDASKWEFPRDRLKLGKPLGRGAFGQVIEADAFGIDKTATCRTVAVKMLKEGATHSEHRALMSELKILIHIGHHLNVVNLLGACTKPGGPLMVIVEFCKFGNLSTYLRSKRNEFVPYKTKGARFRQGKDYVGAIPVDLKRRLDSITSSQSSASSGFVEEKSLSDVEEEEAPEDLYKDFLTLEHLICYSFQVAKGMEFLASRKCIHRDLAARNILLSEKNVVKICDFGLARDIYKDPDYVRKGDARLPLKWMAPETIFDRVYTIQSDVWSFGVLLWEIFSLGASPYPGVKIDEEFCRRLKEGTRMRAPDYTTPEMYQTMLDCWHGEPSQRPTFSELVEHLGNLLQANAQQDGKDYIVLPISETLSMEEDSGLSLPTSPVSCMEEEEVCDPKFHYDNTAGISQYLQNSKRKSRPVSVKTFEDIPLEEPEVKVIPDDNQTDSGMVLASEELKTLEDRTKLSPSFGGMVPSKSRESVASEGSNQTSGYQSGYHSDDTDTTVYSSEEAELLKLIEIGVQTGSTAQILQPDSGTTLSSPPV
Target sequence in this assay (P40337 whole entry partner): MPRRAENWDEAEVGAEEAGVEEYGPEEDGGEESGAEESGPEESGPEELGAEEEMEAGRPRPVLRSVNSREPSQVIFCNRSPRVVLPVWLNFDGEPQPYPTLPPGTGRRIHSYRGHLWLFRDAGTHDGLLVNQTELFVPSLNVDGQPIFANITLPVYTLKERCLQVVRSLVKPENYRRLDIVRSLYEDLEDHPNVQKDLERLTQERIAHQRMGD

[4] = Cytotoxicity against HUVEC cells assessed as inhibition of cell growth incubated for 72 hrs by MTT assay; assay type: toxicity, cell-based; details: human
HGC-27 = assay: Antiproliferative activity against human HGC-27 cells assessed as inhibition of cell growth incubated for 72 hrs by MTT assay; assay type: functional, cell-based; details: HGC-27, 72 h
[5] = molecular target: T1, von Hippel-Lindau disease tumor suppressor/Vascular endothelial growth factor receptor 2; assay: PROTAC activity at VHL/VEGFR2 in human HGC-27 cells assessed as reduction in VEGFR2 protein level incubated for 24 hrs by Western blot analysis; assay type: cell-based
Target sequence in this assay (P35968 whole entry): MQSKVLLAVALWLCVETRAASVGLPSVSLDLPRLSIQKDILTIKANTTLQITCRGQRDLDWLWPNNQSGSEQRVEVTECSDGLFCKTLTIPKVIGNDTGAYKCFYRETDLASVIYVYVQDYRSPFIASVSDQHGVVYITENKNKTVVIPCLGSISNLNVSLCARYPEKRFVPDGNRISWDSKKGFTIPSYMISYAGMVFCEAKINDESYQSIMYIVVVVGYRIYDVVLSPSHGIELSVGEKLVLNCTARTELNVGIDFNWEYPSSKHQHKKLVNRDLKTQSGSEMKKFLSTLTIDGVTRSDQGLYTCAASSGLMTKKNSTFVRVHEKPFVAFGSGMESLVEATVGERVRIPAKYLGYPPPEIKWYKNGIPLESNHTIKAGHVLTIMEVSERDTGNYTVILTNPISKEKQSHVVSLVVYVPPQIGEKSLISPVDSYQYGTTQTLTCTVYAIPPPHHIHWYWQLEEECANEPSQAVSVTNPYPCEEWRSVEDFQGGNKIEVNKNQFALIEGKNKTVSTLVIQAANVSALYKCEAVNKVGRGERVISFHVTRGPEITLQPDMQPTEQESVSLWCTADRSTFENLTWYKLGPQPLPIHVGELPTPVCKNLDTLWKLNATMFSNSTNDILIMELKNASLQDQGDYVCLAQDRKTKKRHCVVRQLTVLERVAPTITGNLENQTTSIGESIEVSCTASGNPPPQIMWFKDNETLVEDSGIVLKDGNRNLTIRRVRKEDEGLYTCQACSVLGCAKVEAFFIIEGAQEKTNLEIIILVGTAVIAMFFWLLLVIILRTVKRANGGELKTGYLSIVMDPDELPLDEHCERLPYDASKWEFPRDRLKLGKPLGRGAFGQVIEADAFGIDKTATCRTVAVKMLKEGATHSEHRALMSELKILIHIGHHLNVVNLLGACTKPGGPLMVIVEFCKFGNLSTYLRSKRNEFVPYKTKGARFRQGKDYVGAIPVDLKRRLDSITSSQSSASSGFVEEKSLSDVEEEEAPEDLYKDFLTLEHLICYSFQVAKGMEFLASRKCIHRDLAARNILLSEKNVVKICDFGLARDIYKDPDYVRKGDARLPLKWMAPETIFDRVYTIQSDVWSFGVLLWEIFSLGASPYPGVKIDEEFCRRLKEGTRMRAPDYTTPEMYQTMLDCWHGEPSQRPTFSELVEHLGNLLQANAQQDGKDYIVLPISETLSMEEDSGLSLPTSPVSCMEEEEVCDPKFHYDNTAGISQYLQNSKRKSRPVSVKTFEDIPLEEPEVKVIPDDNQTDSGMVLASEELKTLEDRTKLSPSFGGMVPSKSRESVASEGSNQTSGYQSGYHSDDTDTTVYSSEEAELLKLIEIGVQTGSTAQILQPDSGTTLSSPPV
Target sequence in this assay (P40337 whole entry): as the sequence (P40337 whole entry partner) above

[6] = molecular target: T1, von Hippel-Lindau disease tumor suppressor/Vascular endothelial growth factor receptor 2; assay: PROTAC activity at VHL/VEGFR2 in human HGC-27 cells assessed as reduction in VEGFR2 protein level by measuring maximal efficacy at 3.33 uM incubated for 24 hrs by Western blot analysis relative to control; assay type: cell-based
Target sequence in this assay (P35968 20-1356 limits assumed): as the sequence (P35968 20-1356 limits assumed) above
Target sequence in this assay (P40337 whole entry partner): as the sequence (P40337 whole entry partner) above

[7] = molecular target: T1, von Hippel-Lindau disease tumor suppressor/Vascular endothelial growth factor receptor 2; assay: PROTAC activity at VHL/VEGFR2 in human HGC-27 cells assessed as induction of VEGRF2 protein degradation at 10 uM incubated for 2 hrs by Western blot analysis; assay type: cell-based
Target sequence in this assay (P35968 20-1356 limits assumed): as the sequence (P35968 20-1356 limits assumed) above
Target sequence in this assay (P40337 whole entry partner): as the sequence (P40337 whole entry partner) above

[8] = molecular target: Vascular endothelial growth factor receptor 2 (Homo sapiens, UniProt P35968); assay: Inhibition of VEGFR2 (unknown origin) at 1 uM by caliper mobility shift assay relative to control
Vascular endothelial growth factor receptor 2, sequence (P35968 whole entry): as the sequence (P35968 whole entry) above

Compound	Emax [3] [%]	EC50 [5] [µM]	Emax [6] [%]	Activity [7]	inhibition [8] [%]	IC50 at 72 h [1] [µM]	IC50 at 72 h [2] [µM]	IC50 at 72 h [4] [µM]	IC50 (HGC-27) [µM]
CNC(=O)c1cc(Oc2ccc(NC(=O)Nc3ccc(Cl)c(C(F)(F)F)c3)cc2)ccn1 [SORAFENIB]						6.38	9.47	9.66	5.15
Cc1ccc(NC(=O)Cn2cc(-c3ccc4c(NC(=O)c5ccc(NC(=O)CCCCC(=O)N6CCN(CCCCCC(=O)N[C@H](C(=O)N7C[C@H](O)C[C@H]7C(=O)NCc7ccc(-c8scnc8C)cc7)C(C)(C)C)CC6)cc5)n[nH]c4c3)cn2)cc1C(F)(F)F						> 100	26.8	> 50	23.9
Cc1ccc(NC(=O)Cn2cc(-c3ccc4c(NC(=O)c5ccc(NC(=O)CCCCCCCCCC(=O)N[C@H](C(=O)N6C[C@H](O)C[C@H]6C(=O)NCc6ccc(-c7scnc7C)cc6)C(C)(C)C)cc5)n[nH]c4c3)cn2)cc1C(F)(F)F						> 100	12	> 50	55.6
Cc1ccc(NC(=O)Cn2cc(-c3ccc4c(NC(=O)c5ccc(N6CCN(CCCCCC(=O)N[C@H](C(=O)N7C[C@H](O)C[C@H]7C(=O)NCc7ccc(-c8scnc8C)cc7)C(C)(C)C)CC6)cc5)n[nH]c4c3)cn2)cc1C(F)(F)F						43.8	> 100	> 50	> 50
Cc1ccc(NC(=O)Cn2cc(-c3ccc4c(NC(=O)c5ccc(NC(=O)CCCCC(=O)N6CCN(CCCCC(=O)N[C@H](C(=O)N7C[C@H](O)C[C@H]7C(=O)NCc7ccc(-c8scnc8C)cc7)C(C)(C)C)CC6)cc5)n[nH]c4c3)cn2)cc1C(F)(F)F	38.5	0.64				38.7	23.1	9.36	23.9
Cc1ccc(NC(=O)Cn2cc(-c3ccc4c(NC(=O)c5ccc(NC(=O)CCCCC(=O)N6CCN(CCCCCCCC(=O)N[C@H](C(=O)N7C[C@H](O)C[C@H]7C(=O)NCc7ccc(-c8scnc8C)cc7)C(C)(C)C)CC6)cc5)n[nH]c4c3)cn2)cc1C(F)(F)F						31.9	47.9	25	44.7
Cc1ccc(NC(=O)Cn2cc(-c3ccc4c(NC(=O)CCCCCCCCCCC(=O)N[C@@H](C(=O)N5C[C@H](O)C[C@H]5C(=O)NCc5ccc(-c6scnc6C)cc5)C(C)(C)C)n[nH]c4c3)cn2)cc1C(F)(F)F					60.4	> 100	> 50	> 50	> 50
Cc1ccc(NC(=O)Cn2cc(-c3ccc4c(NC(=O)c5ccc(N6CCN(C(=O)NCCCCCCC(=O)N[C@H](C(=O)N7C[C@H](O)C[C@H]7C(=O)NCc7ccc(-c8scnc8C)cc7)C(C)(C)C)CC6)cc5)n[nH]c4c3)cn2)cc1C(F)(F)F						> 100	> 100	> 100	> 50
Cc1ccc(NC(=O)Cn2cc(-c3ccc4c(NC(=O)c5ccc(N6CCN(C(=O)NCCCCCCCCC(=O)N[C@H](C(=O)N7C[C@H](O)C[C@H]7C(=O)NCc7ccc(-c8scnc8C)cc7)C(C)(C)C)CC6)cc5)n[nH]c4c3)cn2)cc1C(F)(F)F						> 100	> 100	> 100	> 50
Cc1ccc(NC(=O)Cn2cc(-c3ccc4c(NC(=O)c5ccc(N6CCN(C(=O)NCCCCCCCCCCC(=O)N[C@H](C(=O)N7C[C@H](O)C[C@H]7C(=O)NCc7ccc(-c8scnc8C)cc7)C(C)(C)C)CC6)cc5)n[nH]c4c3)cn2)cc1C(F)(F)F						> 100	> 100	> 100	> 50
Cc1ccc(NC(=O)Cn2cc(-c3ccc4c(NC(=O)c5ccc(NC(=O)CCC(=O)N[C@H](C(=O)N6C[C@H](O)C[C@H]6C(=O)NCc6ccc(-c7scnc7C)cc6)C(C)(C)C)cc5)n[nH]c4c3)cn2)cc1C(F)(F)F						48.2	47.4	28.2	> 50
Cc1ccc(NC(=O)Cn2cc(-c3ccc4c(NC(=O)c5ccc(NC(=O)CCCCCCC(=O)N[C@H](C(=O)N6C[C@H](O)C[C@H]6C(=O)NCc6ccc(-c7scnc7C)cc6)C(C)(C)C)cc5)n[nH]c4c3)cn2)cc1C(F)(F)F		0.28	48			17.9	14.3	4.13	4.36
Cc1ccc(NC(=O)Cn2cc(-c3ccc4c(NC(=O)c5ccc(NC(=O)CCCCC(=O)N6CCN(CCCC(=O)N[C@H](C(=O)N7C[C@H](O)C[C@H]7C(=O)NCc7ccc(-c8scnc8C)cc7)C(C)(C)C)CC6)cc5)n[nH]c4c3)cn2)cc1C(F)(F)F						38.2	25.4	10.9	30.9

More lines, main results first:

Emax [3] [%]	EC50 [5] [µM]	Emax [6] [%]	Activity [7]	inhibition [8] [%]	Compound	IC50 at 72 h [1] [µM]	IC50 at 72 h [2] [µM]	IC50 at 72 h [4] [µM]	IC50 (HGC-27) [µM]
8.7	> 3.33				Cc1ccc(NC(=O)Cn2cc(-c3ccc4c(NC(=O)c5ccc(N6CCN(CCCCC(=O)N[C@H](C(=O)N7C[C@H](O)C[C@H]7C(=O)NCc7ccc(-c8scnc8C)cc7)C(C)(C)C)CC6)cc5)n[nH]c4c3)cn2)cc1C(F)(F)F	> 100	60.3	> 50	> 50
	0.89	42.9			Cc1ccc(NC(=O)Cn2cc(-c3ccc4c(NC(=O)c5ccc(NC(=O)CCCCCCCCCCC(=O)N[C@H](C(=O)N6C[C@H](O)C[C@H]6C(=O)NCc6ccc(-c7scnc7C)cc6)C(C)(C)C)cc5)n[nH]c4c3)cn2)cc1C(F)(F)F	9.45	31.8	17.6	5.13
13.5	> 3.33				Cc1ccc(NC(=O)Cn2cc(-c3ccc4c(NC(=O)c5ccc(NC(=O)CCCCCCCC(=O)N[C@H](C(=O)N6C[C@H](O)C[C@H]6C(=O)NCc6ccc(-c7scnc7C)cc6)C(C)(C)C)cc5)n[nH]c4c3)cn2)cc1C(F)(F)F	> 100	10.9	> 50	10.7
	0.33	62.6			Cc1ccc(NC(=O)Cn2cc(-c3ccc4c(NC(=O)c5ccc(NC(=O)CCCCC(=O)N[C@H](C(=O)N6C[C@H](O)C[C@H]6C(=O)NCc6ccc(-c7scnc7C)cc6)C(C)(C)C)cc5)n[nH]c4c3)cn2)cc1C(F)(F)F	46.8	46.4	13	10.1
	> 3.33				Cc1ccc(NC(=O)Cn2cc(-c3ccc4c(NC(=O)c5ccc(NC(=O)CCCCCC(=O)N[C@H](C(=O)N6C[C@H](O)C[C@H]6C(=O)NCc6ccc(-c7scnc7C)cc6)C(C)(C)C)cc5)n[nH]c4c3)cn2)cc1C(F)(F)F	> 100	31.3	> 50	7.26
31	> 3.33				Cc1ccc(NC(=O)Cn2cc(-c3ccc4c(NC(=O)c5ccc(NC(=O)CCCCC(=O)N6CCN(CCCCCCC(=O)N[C@H](C(=O)N7C[C@H](O)C[C@H]7C(=O)NCc7ccc(-c8scnc8C)cc7)C(C)(C)C)CC6)cc5)n[nH]c4c3)cn2)cc1C(F)(F)F	24.1	51.4	29.6	20.4
			inactive		CC(=O)N[C@H](C(=O)N1C[C@H](O)C[C@H]1C(=O)NCc1ccc(-c2scnc2C)cc1)C(C)(C)C				
	> 3.33				Cc1ccc(NC(=O)Cn2cc(-c3ccc4c(NC(=O)c5ccc(N)cc5)nn(C(=O)CCCCCCCCC(=O)N[C@H](C(=O)N5C[C@H](O)C[C@H]5C(=O)NCc5ccc(-c6scnc6C)cc5)C(C)(C)C)c4c3)cn2)cc1C(F)(F)F	44.9	3.36	5.5	12.1
	> 3.33				Cc1ccc(NC(=O)Cn2cc(-c3ccc4c(NC(=O)c5ccc(N6CCN(CCCCCCCC(=O)N[C@H](C(=O)N7C[C@H](O)C[C@H]7C(=O)NCc7ccc(-c8scnc8C)cc7)C(C)(C)C)CC6)cc5)n[nH]c4c3)cn2)cc1C(F)(F)F	> 100	> 100	> 50	22.6
38.2	> 3.33				Cc1ccc(NC(=O)Cn2cc(-c3ccc4c(NC(=O)c5ccc(N6CCN(CCCCCCC(=O)N[C@H](C(=O)N7C[C@H](O)C[C@H]7C(=O)NCc7ccc(-c8scnc8C)cc7)C(C)(C)C)CC6)cc5)n[nH]c4c3)cn2)cc1C(F)(F)F	38.6	22.4	> 50	5.5
81.7	0.32			96.3	Cc1ccc(NC(=O)Cn2cc(-c3ccc4c(NC(=O)c5ccc(N)cc5)nn(C(=O)CCCCCCCCCCC(=O)N[C@H](C(=O)N5C[C@H](O)C[C@H]5C(=O)NCc5ccc(-c6scnc6C)cc5)C(C)(C)C)c4c3)cn2)cc1C(F)(F)F	25.9	49.7	34.6	1.44
	> 3.33				Cc1ccc(NC(=O)Cn2cc(-c3ccc4c(NC(=O)c5ccc(NC(=O)CCCCCCCCC(=O)N[C@H](C(=O)N6C[C@@H](O)C[C@H]6C(=O)NCc6ccc(-c7scnc7C)cc6)C(C)(C)C)cc5)n[nH]c4c3)cn2)cc1C(F)(F)F	> 100	5.13	12.2	2.09
17.3	> 3.33				Cc1ccc(NC(=O)Cn2cc(-c3ccc4c(NC(=O)c5ccc(N6CCN(C(=O)NCCCCC(=O)N[C@H](C(=O)N7C[C@H](O)C[C@H]7C(=O)NCc7ccc(-c8scnc8C)cc7)C(C)(C)C)CC6)cc5)n[nH]c4c3)cn2)cc1C(F)(F)F	> 100	> 100	> 100	> 50
